Measured values published in the supplement of paper PMC10307832.

Legend:
Experiment in all cases: relative viability (nuclei count vs DMSO), 5 days (fraction); higher = more cells survive
[1] = compound: COc1cc2nc(N3CCCN(C)CC3)nc(NC3CCN(Cc4ccccc4)CC3)c2cc1OC + C[C@@H](Oc1cc(-c2cnn(C3CCNCC3)c2)cnc1N)c1c(Cl)ccc(F)c1Cl [Crizotinib] (partner 1 µM)
Outline: (§1)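 A single step with final 0.05% Triton X-100, 1% formaldehyde and 1 ug/ml Hoechst fixed the cells and stained nuclei 5 days after treatment. Lung cancer cell lines in 1536-well plates had been treated by pin tool the day after seeding with one drug alone or a fixed anchor-drug dose plus five library-drug doses (not always all listed) in √10 steps, and nuclei were counted on 4× images. Relative viability is the ratio of nuclei in treated wells to nuclei in vehicle wells, taken as the median of duplicate plates.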

AZD6482 + Tozasertib = compound: Cc1cc([C@@H](C)Nc2ccccc2C(=O)O)c2nc(N3CCOCC3)cc(=O)n2c1 [AZD6482] + Cc1cc(Nc2cc(N3CCN(C)CC3)nc(Sc3ccc(NC(=O)C4CC4)cc3)n2)n[nH]1 [Tozasertib] (partner 0.1 µM)
Outline: as §1

AZD6482 + Decitabine = compound: Cc1cc([C@@H](C)Nc2ccccc2C(=O)O)c2nc(N3CCOCC3)cc(=O)n2c1 [AZD6482] + Nc1ncn([C@H]2C[C@H](O)[C@@H](CO)O2)c(=O)n1 [Decitabine] (partner 2 µM)
Outline: as §1

AZD6482 + Trametinib = compound: Cc1cc([C@@H](C)Nc2ccccc2C(=O)O)c2nc(N3CCOCC3)cc(=O)n2c1 [AZD6482] + CC(=O)Nc1cccc(-n2c(=O)n(C3CC3)c(=O)c3c(Nc4ccc(I)cc4F)n(C)c(=O)c(C)c32)c1 [Trametinib] (partner 0.02 µM)
Outline: as §1

Cell Line: UMC-11
- relative viability ([1]; first compound 0.2 µM): 0.614
- relative viability ([1]; first compound 0.6325 µM): 0.498
- relative viability ([1]; first compound 2 µM): 0.673
- relative viability ([1]; first compound 6.325 µM): 0.44
- relative viability (AZD6482 + Tozasertib; first compound 0.08 µM): 0.19
- relative viability (AZD6482 + Tozasertib; first compound 0.253 µM): 0.209
- relative viability (AZD6482 + Tozasertib; first compound 0.8 µM): 0.186
- relative viability (AZD6482 + Tozasertib; first compound 2.53 µM): 0.23
- relative viability (AZD6482 + Tozasertib; first compound 8 µM): 0.201
- relative viability (AZD6482 + Decitabine; first compound 0.08 µM): 0.623
- relative viability (AZD6482 + Decitabine; first compound 0.253 µM): 0.584
- relative viability (AZD6482 + Decitabine; first compound 0.8 µM): 0.606
- relative viability (AZD6482 + Decitabine; first compound 8 µM): 0.613
- relative viability (AZD6482 + Trametinib; first compound 0.08 µM): 0.681
- relative viability (AZD6482 + Trametinib; first compound 0.253 µM): 0.659
- relative viability (AZD6482 + Trametinib; first compound 0.8 µM): 0.705
- relative viability (AZD6482 + Trametinib; first compound 2.53 µM): 0.571
- relative viability (AZD6482 + Trametinib; first compound 8 µM): 0.9
